Read-outs that look alike come from different tables or passages of the source.
How the values were obtained:
recombinant HTLV-1 IN = biological target: T1, recombinant HTLV-1 IN (Human T-cell leukemia virus 1, UniProt P03362); experiment: In vitro integration strand transfer assay with HTLV-1 IN; assay type: biochemical; conditions: for HTLV-1 IN strand transfer activity (No drug = 100): INSTI at 634 nM
T1 construct: made in house
Experimental: We used in vitro strand transfer assays to screen this small molecule library for its ability to inhibit recombinant HTLV-1 IN. The enzyme was incubated with an oligonucleotide vDNA donor mimic in the presence or absence of INSTIs and was allowed to react with a supercoiled plasmid mimicking target DNA. During the screening, the concentration of each compound was adjusted to 634 nM to provide optimal resolution of efficacy between well- and under-performing compounds.
The donor vDNA that mimics the 3′-processed LTR of HTLV-1 or STLV-1 DNA was preassembled by annealing the U5_S20Q_UP and U5_S20Q_B or MarB43_U5_S30UP or MarB43_U5_S30B oligonucleotides, respectively (Supplementary Table 4) in 100 mM Tris pH 7.4, 400 mM NaCl. For HTLV-1 IN, strand transfer reactions were conducted in a solution of 24.3 mM PIPES pH 6.0, 138.4 mM NaCl, 16.6 mM MgCl2, 5.8 μM ZnCl2, 12.7 mM DTT, 0.53 μM donor DNA and 4 μg of HTLV-1 IN[9],[39]. In brief, the reaction was incubated at RT for 15 min in the presence of an INSTI or dimethyl sulfoxide (DMSO) control and the reaction was started by the addition of 300 ng of pGEM-9Zf(-) supercoiled plasmid DNA. The reaction was incubated for 1 h at 37 °C and stopped by adding 0.5% SDS and 25 mM ethylenediaminetetraacetic acid (EDTA), pH 8.0.
Proteins were degraded by incubation with 30 μg of proteinase K (Roche) at 37 °C for 1 h. DNA was precipitated at −20 °C overnight in the presence of ethanol supplemented with 20 μg of glycogen and then resuspended in 1.5× agarose loading dye. The DNA products were separated by electrophoresis through 1.5% agarose gel and stained with ethidium bromide and imaged using the BioRad GelDox XR + imager. The data were analysed and the IC50 calculated as previously described. In brief, the DNA band that corresponds to the concerted integration product was quantified by densitometry in ImageLab 4.1 (Bio-Rad). All experiments were done in triplicate. Quantified data points were fitted to dose–response curves in Prism 9. The cumulative standard deviation for each drug was calculated as an average of the upper limit and lower limit values: Lowerlimit=IC50/10^logSE(IC50) Upperlimit=IC50×10^logSE(IC50)

HTLV-1 = experiment: Alu-qPCR of integrated provirus in HTLV-1 infected Jurkat cells; assay type: cell-based; conditions: normalized to GAPDH
Experimental: The HTLV-1 cell-to-cell infection was performed as previously described; Jurkat T cells were counted and diluted in complete RPMI to a final concentration of 0.25 × 10^6 cells/ml and pre-treated with INSTI drugs (final concentration ranging from 0.2 pM to 2 μM) or DMSO as a control for 24 h. MT-2 cells were resuspended in RPMI at a concentration of 2 × 10^6 cells/ml and subjected to a nonlethal γ-radiation dose of 400 Gy. Cells were resuspended at a concentration of 2 × 10^6 cells/ml in serum-free RPMI supplemented with the corresponding INSTI drug. Co-culture of 0.5 × 10^6 for each cell line was carried out for 16 h, after which cells were washed in PBS and resuspended in 1 ml of depletion buffer (PBS, 0.1% FBS and 2 mM EGTA). MT-2 cells were depleted from the culture by means of anti-CD25 magnetic beads (DynabeadsTM CD25, Thermo Fisher). Depletion efficiency was confirmed via flow cytometry as described previously. Jurkat cells were cultured for 2 weeks in complete RPMI supplemented with the drugs and genomic DNA was extracted (DNeasy kit, Qiagen) and stored at −20 °C for subsequent analysis. All the experiments were done in triplicate.
The PVL was measured as previously described[9],[53],[54]. Jurkat genomic DNA was quantified and diluted to a concentration of 5 ng/μL. Real-time qPCR analysis were conducted on 20 ng of gDNA to measure the level of HTLV-1 tax and gapdh genes (Supplementary Table 5). For the standard curve, the gDNA from an HTLV-1 naturally infected T-cell clone (clone 11.50, courtesy of professor Charles Bangham), which has one copy of tax and two of gapdh, was used. The integrated provirus copy number was calculated as follows: (tax copy numbers)/(2×gapdh copy number)[53], and normalised to the DMSO-treated control which was set to 100%. The PVL data were fitted to a dose–response curve in Prism 7 and the EC50 was calculated. Alu-PCR was performed as previously described in ref. [55]. In brief, the first PCR reaction was done with Phusion polymerase starting from 80 ng of gDNA using the ALU-specific primers (Alu-F/Gag-R). The nested PCR was run diluting the amplificated product 1:50. The reaction was done as a qPCR using Gag-specific primers (Gag-R/Gag-F) and the Luna SYBR dye reaction mix (New England Biolabs). The integrated provirus copy numbers were normalised to GAPDH and Jurkat cells treated with DMSO and infected with HTLV-1 were set to 100%. Experiments were done in triplicate. […]
Supplementary Figure 6 | Integrated provirus was quantified by Alu-qPCR.
Values were normalized to GAPDH. Uninfected represents uninfected Jurkat cells, acting as negative control. Condition without any drug present (DMSO) was set as 100%. Mean values and standard deviations are shown for n = three biologically independent experiments. P-values were calculated with respect to the DMSO control using the unpaired t-test with Welch’s correction in Prism 9. P-values are two-sided.

HIV-1 = HIV-1 infection model, read-out: HIV-1 EC50 ± stdev, cited from earlier work
[1] = Replicate 1, read-out: HTLV-1 IN strand transfer IC50
[2] = Replicate 2, read-out: HTLV-1 IN strand transfer IC50
[3] = Replicate 3, read-out: HTLV-1 IN strand transfer IC50
[4] = integrase strand-transfer drug titration, n = 3, read-out: HTLV-1 IC50 ± stdev

T1 sequence (P03362 1168-1462): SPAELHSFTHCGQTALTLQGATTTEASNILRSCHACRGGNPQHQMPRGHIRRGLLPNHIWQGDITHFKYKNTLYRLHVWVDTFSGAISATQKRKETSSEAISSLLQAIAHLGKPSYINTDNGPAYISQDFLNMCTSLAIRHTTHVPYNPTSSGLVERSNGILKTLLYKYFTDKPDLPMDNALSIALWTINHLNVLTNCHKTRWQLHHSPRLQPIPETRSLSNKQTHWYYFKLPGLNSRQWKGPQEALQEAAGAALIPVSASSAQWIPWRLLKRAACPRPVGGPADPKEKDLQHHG

| SMILES | HTLV-1 IN strand transfer activity (No drug = 100) (recombinant HTLV-1 IN; Replicate 1) [%] | HTLV-1 IN strand transfer activity (No drug = 100) (recombinant HTLV-1 IN; Replicate 2) [%] | HTLV-1 IN strand transfer activity (No drug = 100) (recombinant HTLV-1 IN; Replicate 3) [%] | IC50 (recombinant HTLV-1 IN; [1]) [nM] | IC50 (recombinant HTLV-1 IN; [2]) [nM] | IC50 (recombinant HTLV-1 IN; [3]) [nM] | IC50 (recombinant HTLV-1 IN; [4]) [nM] | Integrated provirus by Alu-qPCR (DMSO = 100%) (HTLV-1; Replicate 1) [%] | Integrated provirus by Alu-qPCR (DMSO = 100%) (HTLV-1; Replicate 2) [%] | Integrated provirus by Alu-qPCR (DMSO = 100%) (HTLV-1; Replicate 3) [%] | EC50 (HIV-1; supplementary ref 1) [nM] | EC50 (HIV-1; supplementary ref 14) [nM] |
| --- | --- | --- | --- | --- | --- | --- | --- | --- | --- | --- | --- | --- |
| Nc1c(C(=O)NCc2ccc(F)cc2F)c(=O)n(O)c2ncccc12 [XZ384, 4-amino-N-(2,4-difluorobenzyl)-1-hydroxy-2-oxo-1,2-dihydro-1,8-naphthyridine-3-carboxamide] | 12.8154 | 24.1903 | 23.5902 | 142 | 268 | 121 | 210 ± 34 | 4.1902 | 0.144 | 1.628 | 1.1 ± 0.7 |  |
| Nc1c(C(=O)NCc2ccc(F)cc2F)c(=O)n(O)c2ncc(CCCCCO)cc12 [XZ419, 4-amino-N-(2,4-difluorobenzyl)-1-hydroxy-6-(5-hydroxypentyl)-2-oxo-1,2-dihydro-1,8-naphthyridine-3-carboxamide] | 14.8861 | 26.7311 | 21.3921 | 173 | 249 | 269 | 226 ± 21 |  |  |  | 1.3 ± 0.2 |  |
| Nc1c(C(=O)NCc2ccc(F)cc2F)c(=O)n(O)c2ncc(CCCCCCO)cc12 [XZ426, 4-amino-N-(2,4-difluorobenzyl)-1-hydroxy-6-(6-hydroxyhexyl)-2-oxo-1,2-dihydro-1,8-naphthyridine-3-carboxamide] | 14.449 | 19.5833 | 19.9322 | 159 | 169 | 175 | 163 ± 27.9 |  |  |  | 2.3 ± 0.6 |  |
| COC(=O)CCc1cnc2c(c1)c(N)c(C(=O)NCc1ccc(F)cc1F)c(=O)n2O [XZ434, methyl 3-(5-amino-6-((2,4-difluorobenzyl)carbamoyl)-8-hydroxy-7-oxo-7,8-dihydro-1,8-naphthyridin-3-yl)propanoate] | 20.5794 | 19.7322 | 15.311 | 174 | 217 | 231 | 204 ± 34.1 | 0.3355 | 0.8375 | 1.324e-5 |  | 0.67 ± 0.15 |
| COC(=O)c1c(Nc2ccc(-c3ccc(N)cc3)cc2)c2cccnc2n(O)c1=O [XZ456, methyl 4-((4'-amino-[1,1'-biphenyl]-4-yl)amino)-1-hydroxy-2-oxo-1,2-dihydro-1,8-naphthyridine-3-carboxylate] | 112.032 | 94.791 | 89.3626 |  |  |  |  |  |  |  |  |  |
| Nc1ccc(-c2ccc(Nc3cc(=O)n(O)c4ncccc34)cc2)cc1 [XZ460, 4-((4'-amino-[1,1'-biphenyl]-4-yl)amino)-1-hydroxy-1,8-naphthyridin-2(1H)-one] | 91.7662 | 81.7265 | 81.1342 |  |  |  |  |  |  |  |  |  |
| COC(=O)c1c(N)c2cccnc2n(O)c1=O [XZ462, methyl 4-amino-1-hydroxy-2-oxo-1,2-dihydro-1,8-naphthyridine-3-carboxylate] | 111.483 | 96.7056 | 116.696 |  |  |  |  |  |  |  |  |  |

Source: publication PMC8370991, “Structural basis for the inhibition of HTLV-1 integration inferred from cryo-EM deltaretroviral intasome structures” (Nature Communications, 2021)
